# Key:
# [1] = test system: Parkinsonian cynomolgus monkey; assay: MPTP Parkinsonian cynomolgus monkey, Laval University Disability Scale; type: in vivo
# Excerpt: A typical animal model for idiopathic Parkinson's disease is the Parkinsonian cynomolgus monkey according to P.J. Blanchet et al., Exp. Neurology 1998; 153: 214-222. Monkeys render parkinsonian by repeated injections of 1-methyl-4-phenyl-1,2,3,6-tetrahydropyridine (MPTP).
# Parkinsonian symptoms are qualitatively assessed by the use of the Laval University Disability Scale (B. Gomez-Mancilla et al., 1993; Mov. Disord. 8: 144-150) measuring the following symptoms: posture, mobility, climbing, gait, holding food, vocalizing, grooming, social interaction.
# [2] = test system: reserpinized rat or mouse; assay: Reserpine-induced akinesia in activity meters; type: in vivo; details: 24 h after reserpine
# Procedure: A typical animal model is the reserpinized rat or mouse (e.g. M.S. Starr and B.S. Starr, J. Neural Transm. - Park. Dis. Dement. Sect., 1994; 7: 133-142; M. Gossel et al., J. Neural Transm. - Park. Dis. Dement. Sect., 1995; 10: 27-39; N.R. Hughes et al., Mov. Disord., 1998; 13: 228-233). Reserpine is a potent depleter of monoamines and produces nearly complete akinesia in both species. Prominent 24 h after application, the distance travelled and the time active is nearly zero as measured in conventional activity meters.
# [3] = test system: systemic 3-nitropropionic acid (3-NP) model in rats; assay: Systemic 3-nitropropionic acid (3-NP) model, nocturnal activity; type: in vivo
# Procedure: A typical animal model is the systemic 3-nitropropionic acid (3-NP) model in rats according to C.V. Borlongan et al., Brain Res., 1995; 697: 254-257. Rats are treated with injections of the selective striatal neurotoxin 3-NP i.p. every fourth day (C.V. Borlongan et al., Brain Res. Protocols, 1997; 1: 253-257). After two injections of 3-NP, rats display nocturnal hyperactivity reflecting symptoms of early Huntington's disease, whereas rats treated with four injections of 3-NP display nocturnal akinesia (hypoactivity) reflecting symptoms of late Huntington's disease. Nocturnal activity is automatically measured in conventional acitivity cages by infrared beams. Trans-4-[4-(3-chloro-4-methoxybenzylamino)-benzothieno-[2,3-d]pyrimidin-2-yl]cyclohexanecarboxylic acid or a physiologically acceptable salt thereof reduce both the nocturnal hyperactivity and akinesia.
# [4] = test system: patients with Huntington's disease; assay: Placebo-controlled add-on trial in Huntington's disease; type: in vivo; details: AIMS, UHDRS, video recordings; add-on 2.5 to 20 mg b.i.d. versus placebo
# Procedure: A typical trial to establish the effect of the compounds according to the invention on chorea, voluntary motor performance, and functional disability in patients with Huntington's disease encompasses 32 genetically diagnosed patients. Trans-4-[4-(3-chloro-4-methoxybenzylamino)-benzothieno-[2,3-d]pyrimidin-2-yl]cyclohexanecarboxylic acid sodium or ethanolamine salt or placebo is administered as "add on" to the conventional treatment, which is maintained unchanged during the whole study. The dose of blinded medication is titrated over a period of 3 weeks in a range from 2.5 to 20 mg b.i.d. Then the medication is held constant for 1 week. Assessments are performed in the week before and at the last day of the trial. Chorea is scored using the abnormal involuntary movement scale (AIMS, W. Guy, in: ECDEU assessment manual. Rockville MD: US dept. of health, education and welfare, 1976: 534-537), the unified Huntington's disease rating scale (UHDRS, Huntington study group, 1996, Movement Disord, 11: 136-42), and judgement of video recordings. Voluntary motor performance is assessed using the UHDRS motor scale. Patients and their partners complete a questionnaire regarding functional disability.
# [5] = test system: cervical dystonia (spasmodic torticollis); assay: Double-blind placebo-controlled study in cervical dystonia (TWSTRS); type: in vivo, patients; details: 2.5 mg to 20 mg b.i.d. versus placebo
# [6] = test system: neuroleptics-induced muscle rigidity in rats; assay: Neuroleptics-induced muscle rigidity (haloperidol challenge); type: in vivo; details: resistance to passive flexion and extension of the hind limb
# Excerpt: A typical animal model is neuroleptics-induced muscle rigidity in rats according to S. Wolfarth et al., Arch. Pharmacol. 1992; 345: 209-212. Rats are challenged with the conventional neuroleptic drug haloperidol which enhances muscle tone. Muscle tone is electromechanically measured as the resistence to passive flexion and extension of the hind limb. Trans-4-[4-(3-chloro-4-methoxybenzylamino)-benzothieno-[2,3-d]pyrimidin-2-yl]cyclo-hexanecarboxylic acid or a physiologically acceptable salt thereof thereof decrease the mucle tone enhanced by haloperidol.
# [7] = test system: Weaver mutant mouse; assay: Weaver mutant mouse, locomotor activity in activity cages; type: in vivo
# Excerpt: Typical genetic models in mutant animals are the Campus Syndrome in the Pietrain pig according to A. Richter et al. (Exp. Neurology, 1995; 134: 205-213) or the Weaver mutant mouse according to J.R. Simon and B. Ghetti (Mol. Neurobiol., 1994; 9: 183-189). In the Campus Syndrome model, these mutant pigs show a high-frequency tremor when standing and during locomotion, but not while lying at rest. Assessment of tremor is made by accelerometric recording. In the Weaver mutant mouse, degenerative cerebellar atrophy is fould in association with tremor, gait instability, and toppling over the sides after a few steps.
# Trans-4-[4-(3-chloro-4-methoxybenzylamino)-benzothieno-[2,3-d]pyrimidin-2-yl]cyclohexanecarboxylic acid or a physiologically acceptable salt thereof improve the Campus Syndrome in the Pietrain pig, i.e. reduce disabling tremor when standing and during locomotion, and enhance locomotor activity in the Weaver mutant mouse.
# [8] = test system: oxotremorine-induced tremor; assay: Oxotremorine-induced tremor, rating scale; type: in vivo
# Procedure: A typical animal model for drug-induced tremors is the oxotremorine-induced tremor (e.g. H. Hallberg and O. Almgren, Acta Physiol. Scand., 1987; 129: 407-13; J.G. Clement and W.R. Dyck, J. Pharmacol. Meth., 1989; 22: 25-36). Oxotremorine induces tremor which is measured by a rating scale. Trans-4-[4-(3-chloro-4-methoxybenzylamino)-benzothieno-[2,3-d]pyrimidin-2-yl]cyclohexanecarboxylic acid or a physiologically acceptable salt thereof inhibit oxotremorine-induced tremors.
compound,measurement,setting,value
"COc1ccc(CNc2nc([C@H]3CC[C@H](C(=O)O)CC3)nc3sc4ccccc4c23)cc1Cl [trans-4-[4-(3-chloro-4-methoxybenzylamino)-benzothieno-[2,3-d]pyrimidin-2-yl]cyclohexanecarboxylic acid]",parkinsonian symptoms,[1]; Laval University Disability Scale,reduced all the parkinsonian symptoms
same,total activity,[1]; MPTP monkeys,increased
same,akinesia,[2],dose-dependently reduced
same,distance travelled and time active,[2]; conventional activity meters,restored distance travelled and time active to about the level of normal animals
same,nocturnal akinesia,[3]; after four injections of 3-NP (late Huntington's disease),reduce
same,nocturnal hyperactivity,[3]; after two injections of 3-NP (early Huntington's disease),reduce
same,voluntary and involuntary motor performance,[4],significant improvement
same,TWSTRS scores,[5],significant improvement
same,muscle tone enhanced by haloperidol,[6],decrease
same,locomotor activity,[7],enhance
same,oxotremorine-induced tremors,[8],inhibit
